From ChEMBL document CHEMBL1201862, “PubChem BioAssay data set” (2004)
“And” between values parts separate entries of the source, which are not always exact repeats. Identical values can stand only once.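 The compound was tested at five concentrations on cells cultured in 96-well plates, with a 48-hour exposure period. GI50 marks 50% less growth.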 The source made the active and inactive calls. Cut-off read from the data, not from the text of the source: active = GI50 up to about 1.1 µM and inactive = higher.

What was measured:
Assay in all cases: inhibition of tumour cell growth, NCI panel, 48 h
[1] = tested on: UO-31
[2] = tested on: A549
[3] = tested on: OVCAR-5
[4] = tested on: RPMI-8226
[5] = tested on: 786-0
[6] = tested on: OVCAR-4
[7] = tested on: ACHN
[8] = tested on: UACC-257
[9] = tested on: MOLT-4
[10] = tested on: Hs-578T
[11] = tested on: COLO 205
[12] = tested on: NCI-H522
[13] = tested on: HL-60
[14] = tested on: SW-620
[15] = tested on: A498
[16] = tested on: Malme-3M
[17] = tested on: UACC-62
[18] = tested on: NCI-H226
[19] = tested on: TK-10
[20] = tested on: MDA-MB-231

Measured: GI50

CCOC(=O)c1c(-c2ccc(O)c(OC)c2)c(C#N)c(=S)n(C2OC(COC(C)=O)C(OC(C)=O)C(OC(C)=O)C2OC(C)=O)c1-c1ccccc1 (centres undefined)
inactive: [1] 43.7 µM and 62.1 µM | [2] > 100 µM and 94.4 µM | [3] > 100 µM | [4] 72.9 µM | [5] 71.6 µM and 52.5 µM | [6] > 100 µM | [7] 48.8 µM and 61.8 µM | [8] > 100 µM and 62.2 µM | [9] 48.9 µM and 31.9 µM | [10] > 100 µM | [11] 43.3 µM and 30.3 µM | [12] 18.8 µM and 19.2 µM | [13] > 100 µM | [14] > 100 µM | [15] > 100 µM

CCN(CC)c1ccc2cc(-c3nnc(-c4ccccc4O)o3)c(=O)oc2c1
inactive: [1] 10.4 µM | [2] 13.6 µM | [3] 16.2 µM | [4] 14.6 µM | [16] 14.9 µM | [5] 8.99 µM | [6] 6.35 µM | [7] 10.2 µM | [8] 14.3 µM | [9] 3.03 µM | [10] 20.1 µM | [17] 10.6 µM | [11] 7.66 µM | [12] 5.43 µM | [13] 4.56 µM | [14] 5.75 µM | [15] 13 µM

CCC1NCC(=O)c2c1[nH]c1ccccc21 (centres undefined)
inactive: [1] > 100 µM | [2] > 100 µM | [3] > 100 µM | [4] > 100 µM | [16] > 100 µM | [5] > 100 µM | [6] > 100 µM | [7] > 100 µM | [8] > 100 µM | [9] > 100 µM | [18] > 100 µM | [17] > 100 µM | [11] > 100 µM | [12] 91.6 µM | [13] > 100 µM | [14] > 100 µM | [15] > 100 µM | [19] > 100 µM

COc1ccc(NCc2cccc3c(=O)c4ccc(Cl)cc4oc23)cc1
inactive: [1] > 100 µM | [2] > 100 µM | [3] > 100 µM | [4] > 100 µM | [16] > 100 µM | [5] > 100 µM | [6] > 100 µM | [7] > 100 µM | [8] > 100 µM | [9] > 100 µM | [18] > 100 µM | [17] > 100 µM | [20] > 100 µM | [11] > 100 µM | [12] > 100 µM | [14] > 100 µM | [15] > 100 µM | [19] > 100 µM

O=C1CC2(C[C@@H]3CCCCCCCCC[C@@H](C3)C2)N1 (some centres undefined)
inactive: [1] 14.4 µM | [2] 21.8 µM | [3] 15.4 µM | [4] 13.7 µM | [16] 11.8 µM | [5] 16.1 µM | [6] 17.9 µM | [7] 15.5 µM | [8] 12.2 µM | [9] 12.4 µM | [18] 14.3 µM | [17] 15.8 µM | [11] 16.7 µM | [12] 16.3 µM | [13] 15.1 µM | [14] 18.7 µM | [15] 16.7 µM | [19] 17.1 µM

COc1ccc2cc3[n+](cc2c1O)CCc1cc2c(cc1-3)OCO2 [BERBERRUBINE CHLORIDE]
inactive: [1] > 100 µM | [2] 96.6 µM | [3] > 100 µM | [4] > 100 µM | [16] > 100 µM | [5] > 100 µM | [6] > 100 µM | [7] 79.8 µM | [8] > 100 µM | [9] 52.8 µM | [18] > 100 µM | [17] > 100 µM | [11] > 100 µM | [12] > 100 µM | [13] > 100 µM | [14] 92.9 µM | [15] > 100 µM | [19] > 100 µM
